Assay results as given in publication PMC12703428, “Development of Granzyme A Turn‐ON Fluorescent Activity‐Based Probes” (Chembiochem, 2025).
“And” between values parts separate entries of the source, which are not always exact repeats. Equal entries are not always repeated. Square brackets hold non-standard residues; d marks the D form. Ends that are not written are not given here. Oic = O=C(O)[C@@H]1C[C@@H]2CCCC[C@@H]2N1; Tic = O=C(O)[C@@H]1Cc2ccccc2CN1

Experiments:
[1] = tested on: NK‐92 cells; experiment: Flow cytometry analysis of protein labeling in NK-92 and MDA-MB-231 cells; type: cell-based, human; settings: 2 h, 37 °C
Method: Figure 4 Characterization of qABPs in native proteomes. A) Labeling of GzmA by 5 and 6 in lysates of various cell lines (1 h, 37 °C). B) Stability of 5 and 6 in buffer and cell media (11 h, 37 °C). The hydrolysis of probes was measured by monitoring the production of Cy5 fluorescence signal over time. […] C) Labeling of GzmA by probes 3 -6 in NK-92 cells (2 h, 37 °C). D) Flow cytometry analysis of protein labeling in NK-92 cells by 3 -5. […] E) Flow cytometry analysis of concentration-dependent GzmA labeling in NK-92 cells and S/N of 5 (5 μM, 2 h, 37 °C). […] F) Flow cytometry analysis of protein labeling by 5 in MDA-MB-231 cells co-cultured with NK-92 cells (see Supporting Information for conditions).

[2] = tested on: MDA‐MB‐231 cells co‐cultured with NK‐92 cells; experiment: GzmA transfer in NK-92 / MDA-MB-231 coculture; type: cell-based, human; settings: 5x10^5 MDA-MB-231 with 2x10^6 NK-92 cells, probe 5 μM, 1-6 h, flow cytometry and gel-based analyses
Method: Figure 4 Characterization of qABPs in native proteomes. A) Labeling of GzmA by 5 and 6 in lysates of various cell lines (1 h, 37 °C). B) Stability of 5 and 6 in buffer and cell media (11 h, 37 °C). The hydrolysis of probes was measured by monitoring the production of Cy5 fluorescence signal over time. […] C) Labeling of GzmA by probes 3 –6 in NK‐92 cells (2 h, 37 °C). D) Flow cytometry analysis of protein labeling in NK‐92 cells by 3 –5. […] E) Flow cytometry analysis of concentration‐dependent GzmA labeling in NK‐92 cells and S/N of 5 (5 μM, 2 h, 37 °C). […]
Supplementary Figure 5. […] Protein samples were analyzed by SDS-PAGE and in-gel fluorescence scanning for Cy5 signal. […]
Conditions for Figure 4C: Various concentrations of probes 3-6 were incubated with 1x10^6 NK-92 cells for 2 h at 37 °C in a humidified incubator. […] Lysates were collected, protein concentration was measured with PIERCE BCA protein assay and samples were analyzed with in-gel fluorescence and GzmA western blotting. […]
All flow cytometry data were collected on BD LSRFortessa and FACSymphony A5 Cell Analyzers and analyzed with FlowJo software. […] Fixed/Permeabilized cells were then resuspended in appropriate amounts of cell staining buffer (BioLegend #420201) and analyzed with flow cytometry and FlowJo software. […]

[3] = target: T1, GzmK (Homo sapiens, UniProt P49863); experiment: Cross-reactivity labeling, GzmK; type: biochemical; settings: GzmK 100 nM, probe 10-100 nM, 2 h, 37 °C, in-gel fluorescence
T1 sequence (P49863 27-264): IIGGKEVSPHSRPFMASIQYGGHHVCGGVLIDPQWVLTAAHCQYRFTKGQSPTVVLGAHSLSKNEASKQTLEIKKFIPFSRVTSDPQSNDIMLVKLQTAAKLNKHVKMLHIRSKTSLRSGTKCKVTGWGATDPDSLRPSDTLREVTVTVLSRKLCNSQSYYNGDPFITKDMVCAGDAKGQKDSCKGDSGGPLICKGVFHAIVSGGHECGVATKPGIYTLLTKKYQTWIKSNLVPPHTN
Method: Protease (100 nM) HNE PR3 GzmK GzmA
Protease (100 nM) GzmA GzmK
Supplementary Figure 2. Cross-reactivity of probes. (A) Labeling of GzmA, GzmK, PR3, and HNE
(100 nM, 2 h, 37 °C) by 100 nM of 5 and 6. (B) Labeling of GzmA and GzmK (100 nM, 2 h, 37 °C) by
100 nM of 3 – 6. (C) Concentration-dependent labeling of GzmA and GzmK (100 nM, 2 h, 37 °C) by 5 and
6. Protein samples were analyzed by SDS-PAGE and in-gel fluorescence scanning for Cy5 signal.
Protein loading was confirmed by SYPRO Ruby staining. […]

Row | Substance | Cell permeability by flow cytometry (Cy5 signal in NK-92 cells) ([1]; 1x10^6 NK-92 cells, fixed/permeabilized, mean ± SD n = 3) | Concentration dependence of protein labeling in NK-92 cells (flow cytometry) ([1]; NK-92 cells, n = 3) | S/N ratio (mean fluorescence intensity, intact NK-92 versus MDA-MB-231 cells) ([1]; probe 5 μM, flow cytometry, n = 3) | Detection of GzmA transfer from NK-92 cells to MDA-MB-231 cells [2] | Labeling of GzmK (cross-reactivity) [3]
1 | IGNR [compound 5] | clear Cy5 signal | concentration‐dependent protein labeling | ≈ 4 and 4 | able to detect GzmA transfer | labeling was significantly weaker than for GzmA and required considerably higher probe concentrations
2 | [Tic]G[Oic]R [compound 6] |  |  |  |  | labeling was significantly weaker than for GzmA and required considerably higher probe concentrations
